# In PMC3215729, “Rv2607 from Mycobacterium tuberculosis Is a Pyridoxine 5′-Phosphate Oxidase with Unusual Substrate Specificity” (PLoS ONE, 2011):
# Molecular target: T1, Rv2607 (PNPOx) (Mycobacterium tuberculosis, UniProt P9WIJ1)
# T1 construct: gene pdxH
# T1 sequence (P9WIJ1 whole entry): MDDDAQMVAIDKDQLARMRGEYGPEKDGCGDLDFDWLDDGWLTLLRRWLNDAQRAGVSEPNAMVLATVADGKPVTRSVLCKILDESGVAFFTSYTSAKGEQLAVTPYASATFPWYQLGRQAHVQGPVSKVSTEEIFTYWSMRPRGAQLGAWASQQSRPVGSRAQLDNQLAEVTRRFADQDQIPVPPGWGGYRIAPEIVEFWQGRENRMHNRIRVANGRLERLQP
structure (smiles),measurement,value
Cc1cc2nc3c(=O)[nH]c(=O)nc-3n(C[C@H](O)[C@H](O)[C@H](O)COP(=O)(O)O)c2cc1C [FMN],native nESI-MS of intact complex; ESI-MS identification of extracted cofactor,The yellow cofactor bound tightly to Rv2607 as purified and was unambiguously identified as FMN
